Source: patent US7691416B2, “Methods of treating vascular disease” (priority 2002, dated 2010)
Entries after “also recorded” stand apart in the source; their conditions may differ.

Experiments:
PAI-1 [1] = experiment: Western blot of PAI-1 in SMC; assay type: cell-based; settings: CO 250 ppm, 24 or 48 hours
Excerpt: (§1) Animals. Male (250-350 g) Brown Norway rats (RT1^n) were used as aortic graft donors and male (250-350 g) Lewis rats (RT11) as recipients. Dawley (400-450 g) rats were used in the balloon injury model. Adult male C57BL/6, C57/S129, p21^−/− and p53^−/− null mice were purchased from Jackson Laboratory (Bar Harbor, Me.). mkk3^(−/−) null mice were generated as described Lu et al. (EMBO. 18:1845-1857 (1999)). The inos^−/− and enos^−/− mice were bred at the University of Pittsburgh. Aortic transplant model. Aortic transplantation was performed as described in Shimizu et al. (Nat. Med. 7:738-741 (2001)). Briefly, 3 to 4 cm of descending aorta was harvested from the donor and implanted between the renal arteries and the aortic bifurcation of the recipient. Both edges of the native abdominal aorta were ligated. Balloon injury model. Balloon angioplasty was carried out as described in Murakami et al. (Atherosclerosis 157:361-368 (2001)). […] [^3H]thymidine incorporation was measured by scintillation spectroscopy and presented as mean counts/min/well. […] Areas from eight to ten captured images were calculated using digital imaging software as number of pixels corresponding to those areas. Twenty-four to forty-eight sections from each group were statistically analyzed with SPSS software version 10. […]

rat aortic SMC = experiment: Flow cytometry cell cycle analysis; assay type: cell-based; settings: CO 250 ppm, 24 hours
Excerpt: as §1

ATF-2 = experiment: Western blot of phosphorylated ATF-2 in SMC; assay type: cell-based; settings: SMC exposed to CO (250 ppm)
Excerpt: as §1

p38 MAPK = experiment: Western blot of phosphorylated p38 MAPK in SMC; assay type: cell-based, mouse
Excerpt: Animals. Male (250-350 g) Brown Norway rats (RT1^n) were used as aortic graft donors and male (250-350 g) Lewis rats (RT11) as recipients. Dawley (400-450 g) rats were used in the balloon injury model. Adult male C57BL/6, C57/S129, p21^−/− and p53^−/− null mice were purchased from Jackson Laboratory (Bar Harbor, Me.). mkk3^(−/−) null mice were generated as described Lu et al. (EMBO. 18:1845-1857 (1999)). The inos^−/− and enos^−/− mice were bred at the University of Pittsburgh. Aortic transplant model. Aortic transplantation was performed as described in Shimizu et al. (Nat. Med. 7:738-741 (2001)). Briefly, 3 to 4 cm of descending aorta was harvested from the donor and implanted between the renal arteries and the aortic bifurcation of the recipient. Both edges of the native abdominal aorta were ligated. Balloon injury model. Balloon angioplasty was carried out as described in Murakami et al. (Atherosclerosis 157:361-368 (2001)). Briefly, a 2 Fr. arterial embolectomy catheter (Baxter, Chicago, Ill.) was inserted into the common carotid artery, and injury was created by inflating the balloon to 5 atmospheres of pressure for 5 minutes. The arteries were flushed and the external carotid artery was ligated, ensuring return of blood flow through the common and internal carotid arteries. Injury of the vessel wall and subsequent pathological analysis was made in a manner that was blinded to the treatment group. CO exposure. CO was delivered to animals as described in Otterbein et al. (Nat. Med. 6:422-428 (2000)). Graft donors and recipients were exposed to CO (250 ppm) for two days before transplantation and for 56 days immediately following transplantation. In the balloon injury model, rats received either no pretreatment or were exposed to CO (250 ppm) for one hour prior to injury. Following surgery rats were housed in room air for two weeks. Cells. Primary mouse and rat smooth muscle cells (SMC) were isolated and cultured as described in Laubach et al. (Proc Natl Acad Sci USA 92:10688-9 (1995)). Mouse SMC isolated from HO-1^−/− mice were obtained as described in Duckers et al. (Nat. Med. 7:693-698 (2001)). Cell treatment and reagents. Guanylate cyclase inhibitor 1H(1,2,4) oxadiazolo(4,3-a)quinoxalin-1 (ODQ; Calbiochem-Novabiochem, San Diego, Calif.; 10-100 μM) and p38 MAPK inhibitor pyridinyl imidazol SB203580 (Calbiochem; 5-20 μM) were dissolved in DMSO. […] [^3H]thymidine incorporation was measured by scintillation spectroscopy and presented as mean counts/min/well. […] Areas from eight to ten captured images were calculated using digital imaging software as number of pixels corresponding to those areas. Twenty-four to forty-eight sections from each group were statistically analyzed with SPSS software version 10. […]

PAI-1 [2] = experiment: PAI-1 protein in transplanted aortas (immunohistology and Western blot); assay type: in vivo, rat; settings: 56 days after transplantation
Excerpt: as §1

ERK-1 and -2 = experiment: Western blot of phosphorylated ERK in SMC; assay type: cell-based; settings: SMC exposed to CO (250 ppm)
Excerpt: as §1

JNK-1 and -2 = experiment: Western blot of phosphorylated JNK in SMC; assay type: cell-based; settings: SMC exposed to CO (250 ppm)
Excerpt: as §1

SMC = experiment: Trypan blue and propidium iodide exclusion analyses; assay type: cell-based; settings: SMC exposed to CO
Excerpt: as §1

## [C-]#[O+] [CO, carbon monoxide]
PAI-1 [1]
  PAI-1 protein: slightly increased
Rat aortic SMC
  Cell cycle distribution: accumulated in the G0/G1 phase
ATF-2
  ATF-2 activation: activation
p38 MAPK; CO 250 ppm
  Time of peak p38 MAPK phosphorylation/activation after exposure: four
p38 MAPK; SMC exposed to CO (250 ppm)
  p38 MAPK phosphorylation/activation: activated
PAI-1 [2]
  PAI-1 protein expression versus allogeneic aortas transplanted in the absence of CO: similar; also recorded: No decrease
ERK-1 and -2
  Activation of ERK-1 and -2: did not modulate
JNK-1 and -2
  Activation of JNK-1 and -2: induced activation
SMC
  Cell death accompanying inhibition of SMC proliferation: not associated with cell death
